Measured values published in the NIST ThermoML archive (doi:10.1016/j.fluid.2008.04.003).
± gives the expanded uncertainty stated by the source.

Test: wn = mass fraction of the nth substance listed
Conditions: 101 kPa, Liquid; for viscosity: Capillary tube (Ostwald / Ubbelohde) method

Compound NC(CO)(CO)CO [2-amino-2-(hydroxymethyl)-1,3-propanediol] + O has a viscosity (283.15 K, w1 = 0.0015) of 1.315 ± 0.012 mPa·s, a viscosity (283.15 K, w1 = 0.005) of 1.354 ± 0.012 mPa·s and a viscosity (283.15 K, w1 = 0.01) of 1.36 ± 0.012 mPa·s. For the same compound, the viscosity (283.15 K, w1 = 0.025) was 1.422 ± 0.013 mPa·s, the viscosity (283.15 K, w1 = 0.1) was 1.802 ± 0.016 mPa·s and the mass density (283.15 K, w1 = 0.0015) was 1000.5 ± 1.1 kg/m3. For the same compound, the mass density (283.15 K, w1 = 0.005) was 1001.6 ± 1.1 kg/m3, the mass density (283.15 K, w1 = 0.01) was 1002.4 ± 1.1 kg/m3 and the mass density (283.15 K, w1 = 0.025) was 1006.8 ± 1.1 kg/m3. It also gave a mass density (283.15 K, w1 = 0.1) of 1026.2 ± 1.1 kg/m3, a mass density (288.15 K, w1 = 0.0015) of 999.9 ± 1.1 kg/m3 and a mass density (288.15 K, w1 = 0.005) of 1001.3 ± 1.1 kg/m3. It also gave a mass density (288.15 K, w1 = 0.01) of 1001.8 ± 1.1 kg/m3, a mass density (288.15 K, w1 = 0.025) of 1006 ± 1.1 kg/m3 and a mass density (288.15 K, w1 = 0.1) of 1025 ± 1.1 kg/m3. For the same compound, the mass density (293.15 K, w1 = 0.0015) was 999.1 ± 1 kg/m3, the mass density (293.15 K, w1 = 0.005) was 1000.5 ± 1 kg/m3 and the mass density (293.15 K, w1 = 0.01) was 1001 ± 1 kg/m3. It also gave a mass density (293.15 K, w1 = 0.025) of 1005.1 ± 1.1 kg/m3, a mass density (293.15 K, w1 = 0.1) of 1023.8 ± 1.1 kg/m3 and a viscosity (298.15 K, w1 = 0.0015) of 0.905 ± 0.009 mPa·s. For the same compound, the viscosity (298.15 K, w1 = 0.005) was 0.913 ± 0.009 mPa·s, the viscosity (298.15 K, w1 = 0.01) was 0.917 ± 0.009 mPa·s and the viscosity (298.15 K, w1 = 0.025) was 0.959 ± 0.009 mPa·s. The viscosity (298.15 K, w1 = 0.1) was 1.173 ± 0.011 mPa·s, the mass density (298.15 K, w1 = 0.0015) was 997.9 ± 1.1 kg/m3 and the mass density (298.15 K, w1 = 0.005) was 999.4 ± 1.1 kg/m3. It also gave a mass density (298.15 K, w1 = 0.01) of 1000 ± 1.1 kg/m3, a mass density (298.15 K, w1 = 0.025) of 1003.8 ± 1.1 kg/m3 and a mass density (298.15 K, w1 = 0.1) of 1022.4 ± 1.1 kg/m3. For the same compound, the mass density (303.15 K, w1 = 0.0015) was 996.6 ± 1.1 kg/m3, the mass density (303.15 K, w1 = 0.005) was 997.8 ± 1.1 kg/m3 and the mass density (303.15 K, w1 = 0.01) was 998.7 ± 1.1 kg/m3. It also gave a mass density (303.15 K, w1 = 0.025) of 1002.3 ± 1.1 kg/m3, a mass density (303.15 K, w1 = 0.1) of 1020.8 ± 1.1 kg/m3 and a mass density (308.15 K, w1 = 0.0015) of 995 ± 1.2 kg/m3. For the same compound, the mass density (308.15 K, w1 = 0.005) was 996 ± 1.2 kg/m3, the mass density (308.15 K, w1 = 0.01) was 997.2 ± 1.2 kg/m3 and the mass density (308.15 K, w1 = 0.025) was 1000.7 ± 1.2 kg/m3. The mass density (308.15 K, w1 = 0.1) was 1019.4 ± 1.2 kg/m3, the viscosity (313.15 K, w1 = 0.0015) was 0.656 ± 0.007 mPa·s and the viscosity (313.15 K, w1 = 0.005) was 0.662 ± 0.007 mPa·s. For the same compound, the viscosity (313.15 K, w1 = 0.01) was 0.669 ± 0.007 mPa·s, the viscosity (313.15 K, w1 = 0.025) was 0.696 ± 0.007 mPa·s and the viscosity (313.15 K, w1 = 0.1) was 0.857 ± 0.008 mPa·s. It also gave a mass density (313.15 K, w1 = 0.0015) of 993.1 ± 1.2 kg/m3, a mass density (313.15 K, w1 = 0.005) of 993.6 ± 1.2 kg/m3 and a mass density (313.15 K, w1 = 0.01) of 995.4 ± 1.2 kg/m3. The mass density (313.15 K, w1 = 0.025) was 998.7 ± 1.2 kg/m3 and the mass density (313.15 K, w1 = 0.1) was 1017.7 ± 1.2 kg/m3.
